Consider four molecules from patent US7309817B2, “Plant alpha farnesene synthase and polynucleotides encoding same” (The Horticulture and Food Research Institute of New Zealand …, priority 2002, dated 2007).

In data set [1] the test system is other sesquiterpene synthases. Particulars: other sesquiterpene synthases (Cai et al 2002, Steele et al 1998); read-out: Km reported in the literature; cited from earlier work.
Data set [2] has as its target T1, alpha-farnesene synthase (Malus domestica, UniProt Q84LB2, A297S/I281F).
T1 construct: a cDNA fragment encoding EST57400 was excised from pBK-CMV57400 using a EcoRI restriction endonuclease site immediately adjacent to the start ATG; His6 (from vector pET-30a) (N); made in house; host or cells: E. coli BL21-CodonPlus-RIL
The data set is classed as biochemical. Particulars: for Vrel (%), relative activity due to additions of metal ions: saturating FDP, Mg 7 mM, Mn 150 μM, KCl or NaCl 50 mM. The protocol: Kinetic Studies: For kinetic studies, alpha-farnesene synthase active protein that had been induced in culture and purified as described for protein optimisation was added to a minimal assay buffer containing 50 mM Bis-Tris-Propane (pH 7.5), 10% (v/v) glycerol, 1 mM DTT and 0.1% (v/v) Tween-20. […] One mL assays containing 1-2 μg of protein were overlaid with 0.6 mL pentane and incubated in 1.5 mL microfuge tubes for 2 hours at 30° C. and 150 rpm. All assays were performed in triplicate. Following incubation assays were immediately placed on ice and a 200 μL aliquot of the pentane layer removed for analysis. The aliquots were added to 1.5 mL microfuge tubes containing […] Organic Counting Scintillant (OCS) (Amersham) and vortexed briefly. Scintillation analysis was performed using a Wallac 1409 Liquid Scintillation Counter (^3H efficiency≈70%).
The effect on enzyme activity of metal co-factors with and without salts was also tested. Mg^2+ and Mn^2+ were added in the presence and absence of 50 mM KCL and 50 mM NaCl in all possible combinations. Controls included incubation without enzyme, with enzyme but without metal ion cofactors and with enzyme and cofactors in the presence of 10 mM EDTA.
Kinetic constants were determined from the DPM data by nonlinear regression using the Origin50 graphics package. […] All experiments were carried out at least twice.

In data set [3] the test system is CC(C)=CCC/C(C)=C/CC/C(C)=C/CO[P@@](=O)(O)OP(=O)(O)O. Put plainly: purified protein, by the assay type. Particulars: other: protein stored at -80 C for 9 months; pH 7.5.
The nature of data set [4]: Storage stability of purified recombinant alpha-farnesene synthase at -80 C. The class given is physicochemical. The protocol: Characterization of alpha-farnesene synthase from bacterial extracts and partially purified alpha-farnesene synthase recombinant protein: Cultures were set up, grown and induced as above. Following induction, cultures were immediately transferred to a 24° C. incubator and allowed to grow for a further 18-20 hours with continuous agitation and then cells harvested by centrifugation (2000×g for 10 min). […] The remainder of the extract (15 ml) was applied to PD-10 gel filtration columns (Amersham-Pharmacia Biotech) pre-equilibrated with either binding or extraction buffer (DTT omitted). Eluent fractions were then pooled and purification of recombinant protein was carried out in a single step using immobilised metal affinity chromatography (IMAC). The eluent was applied to a Hi-Trap Chelating HP column (Amersham-Pharmacia Biotech) charged with Ni^+. Non bound proteins were removed and recombinant protein was eluted following the manufacturer's specifications. […] Headspace volatiles were collected as in the bacterial cultures. Aliquots of the remaining recombinant protein were stored at −80° C. in 20% glycerol until required.
Protein concentration was determined from the extinction coefficient (VectorNTI version 8) and the purified extract adjusted to ˜1 mg protein/mL with His6 elution buffer containing 10% glycerol and 1 mM DTT. […]

Turning to `[Mg+2]` [Mg^2+], in data set [1], the Km (commonly the concentration of substrate that gives half-maximal velocity) is 70 to 150 µM. Besides, the “inhibition of activity at high Mg2+ concentration” value in data set [2] (25 mM Mg2+) worked out at 23%. In addition, the “Vrel (%), relative activity due to additions of metal ions” value in data set [2] came to 16%.
`[Mn+2]` [Mn^2+]: the Km in data set [1] is 7 to 30 µM. For the same molecule, the “inhibition of activity at high Mn2+ concentration” value in data set [2] (>800 μM Mn2+) was “at least 50%”. Also, the “Vrel (%), relative activity due to additions of metal ions” value in data set [2] was determined as 13%.
Consider “alpha-farnesene synthase (Malus domestica; A297S/I281F)”, for which the Km in data set [3] was 1.5 µM.

B1: alpha-farnesene synthase: recombinant His-tagged sesquiterpene synthase from apple (Malus domestica Royal Gala) skin, expressed in E. coli (protein, listed as Malus domestica)
chain: MEFRVHLQADNEQKIFQNQMKPEPEASYLINQRRSANYKPNIWKNDFLDQSLISKYDGDEYRKLSEKLIEEVKIYISAETMDLVAKLELIDSVRKLGLANLFEKEIKEALDSIAAIESDNLGTRDDLYGTALHFKILRQHGYKVSQDIFGRFMDEKGTLENHHFAHLKGMLELFEASNLGFEGEDILDEAKASLTLALRDSGHICYPDSNLSRDVVHSLELPSHRRVQWFDVKWQINAYEKDICRVNATLLELAKLNFNVVQAQLQKNLREASRWWANLGFADNLKFARDRLVECFSCAVGVAFEPEHSSFRICLTKVINLVLIIDDVYDIYGSEEELKHFTNAVDRWDSRETEQLPECMKMCFQVLYNTTCEIAREIEEENGWNQVLPQLTKVWADFCKALLVEAEWYNKSHIPTLEEYLRNGCISSSVSVLLVHSFFSITHEGTKEMADFLHKNEDLLYNISLIVRLNNDLGTSAAEQERGDSPSSIVCYMREVNASEETARKNIKGMIDNAWKKVNGKCFTTNQVPFLSSFMNNATNMARVAHSLYKDGDGFGDQEKGPRTHILSLLFQPLVN
modifications: His tag
notes: recombinant His-tagged sesquiterpene synthase from apple (Malus domestica Royal Gala) skin, expressed in E. coli
In the case of B1, the “loss of activity on storage” value in data set [4] (stored at -80 C for 9 months) worked out at 92.5%; in data set [4] (stored in glycerol for 4 weeks at -80 C), 15%. For the same molecule, the “temperature of maximum activity” value in data set [2] (7 mM Mg, 150 μM Mn, 25 μM FDP, FIG. 14) came to 37 °C.
